The subject of data set [1] is MDA-MB-231 cells. The data set is described as follows: Nuclei counting as a measure for proliferation. The conditions noted are these: time- and concentration-dependent, 24, 48, 72 h, read-out: IC50 of proliferation (nuclei counts). The class given is cell-based, human. As to the method:
After 24, 48 or 72 h of exposure, cell viability was evaluated by determination of metabolic activity and counting of cellular nuclei. Metabolic activity was assessed by addition of Cell Titer Blue (Promega), incubation at 37°C and the appropriate percentage of CO2 for 3 h, followed by measuring the absorbance at 490 nm using a PHERAstar (BMG LabTech, Germany). For nuclei counting, cells were fixed with 4% (w/v) paraformaldehyde at room temperature (RT) for 20 min, permeabilised with 0.2% (v/v) Triton X-100 in PBS at RT for 20 min, DNA stained with 1 μg/mL DAPI (Life Technologies, D1306) at RT for 1 h, followed by three washes with PBS. Whole well images for the total number of cells were acquired with an Acumen Cellista (TTP Labtech), using the 405 nm excitation / FL1 (420-500 nm) emission channel. The cell viability was normalised to the negative control (DMSO) and positive control (Staurosporin and puromycin), followed by fitting the four-parametric variable slope function (GraphPad Prism 5.0) to data of quadruplicate experiments.

The target of data set [2] is T1, recombinant human N-myristoyltransferase 1 (rNMT1) (Homo sapiens, UniProt P30419).
T1 construct: Full-length HsNMT1 enzyme was produced as previously described; made in house
T1 sequence (P30419 1-496): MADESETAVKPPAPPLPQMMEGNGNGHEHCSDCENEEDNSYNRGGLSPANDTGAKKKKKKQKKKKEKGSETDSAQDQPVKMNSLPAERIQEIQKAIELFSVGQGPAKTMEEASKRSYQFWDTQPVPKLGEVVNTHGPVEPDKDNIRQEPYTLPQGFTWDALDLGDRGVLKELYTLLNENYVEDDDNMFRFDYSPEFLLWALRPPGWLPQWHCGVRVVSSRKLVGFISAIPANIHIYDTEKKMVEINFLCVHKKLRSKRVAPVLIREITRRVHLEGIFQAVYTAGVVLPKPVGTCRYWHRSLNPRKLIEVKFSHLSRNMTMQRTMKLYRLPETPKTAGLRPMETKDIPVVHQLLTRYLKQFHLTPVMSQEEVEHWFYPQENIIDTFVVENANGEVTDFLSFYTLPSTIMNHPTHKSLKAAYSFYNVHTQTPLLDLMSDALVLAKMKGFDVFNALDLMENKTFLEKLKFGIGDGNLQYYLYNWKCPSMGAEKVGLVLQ
The data set is described as follows: Enzymatic HsNMT1 assay (CPM detection of CoA thiol by-product). Type of data set: biochemical. The conditions noted are these: recombinant human NMT1; mean of two independent assays in triplicate; values for 3 and 4 extrapolated; read-out: In Vitro IC50, This Article. As to the method:
After background correction, IC50 values were determined by fitting the four-parametric variable slope function (GraphPad Prism 5.0), with the stated IC50 values being the mean of two independent assays performed in triplicate.

In data set [3] the test system is NMT (in-cell target engagement, ARL1). The data set is described as follows: Sortase A assay (peptide addition to ARL1), human cell lines. The conditions noted are these: A375, NCI-H929 and PANC1 cells; 10, 1 and 0.1 μM 5.
Procedure: The homogenate was further disrupted by shearing it three times through a 30G needle. […] Hereafter the reaction was quenched with 5 mM EDTA and stored at −20°C until further analysis.
Data set [4] in a line: Precipitation in rNMT1 buffer, absorbance at 750 nm. The conditions noted are these: 15 min at room temperature. The class given is physicochemical. As for the experimental part: Absorbance at 750 nm was determined after 15 min at room temperature.
and 72 h. Mean of quadruplicate measurements, ± SEM.
(E) Nuclei counts of HeLa cells after exposure to 1-5 for 24, 48 and 72 h. Mean of quadruplicate

For data set [5], the system named is HeLa cells. The data set is described as follows: Apoptosis, active caspase-3 staining by FACS. The settings on record: 18 h, 30 μM 4, 10 μM 5.
Data set [6] concerns N-myristoylated proteome (NMT substrates). The data set is described as follows: Quantitative chemical proteomics of YnMyr-tagged proteins. The conditions noted are these: MDA-MB-231 (n = 75). Type of data set: cell-based, human. From the text: HeLa and MDA-MB-231 cells were exposed (in triplicate) to 1–5, in a setup identical to that used for in-gel analyses (Figure 2A), with the exception that YnMyr-tagged proteins were ligated to AzRB. Labeled proteins were enriched on NeutrAvidin-agarose and digested on-resin with trypsin; peptides were labeled with tandem mass tag, and analyzed and quantified by nano-liquid chromatography-tandem mass spectrometry on a Thermo Q-Exactive instrument.
Cysteine carbamidomethylation was used as a fixed modification and methionine oxidation and N-terminal acetylation as variable modifications. ‘Trypsin/P’ was chosen as digestion mode enzyme, and up to two missed cleavages were allowed. The ‘match between run’ option was selected, along with ‘unique and razor peptides’ for protein quantification. TMT was set per sample group. […] The false discovery rate was set to 0.01 for peptides and a minimum of 2 unique peptides per protein were required. The mass spectrometry proteomics data have been deposited to the ProteomeXchange Consortium via the PRIDE partner repository with the dataset identifier PXD012722.

Data set [7] relates to de novo protein synthesis. The data set is described as follows: L-AHA tagging of de novo protein synthesis. The conditions noted are these: MDA-MB-231 and HeLa; 18 h; 30 μM 4, 10 μM 5. The class given is cell-based, human. From the text: Cells were subsequently harvested as described before (see Myristic Acid Analogue (YnMyr) Tagging Experiments).
The nature of data set [8]: Precipitation in growth media.
The test system of data set [9] is HeLa cells. The data set is described as follows: Cell-cycle distribution by FACS (DNA content, EdU). The settings on record: 18 h, 30 μM 4, 10 μM 5.
The test system of data set [10] is NMT within living cells (N-myristoylation). The data set is described as follows: YnMyr metabolic tagging, in-gel fluorescence.
Data set [11] deals with Jurkat cells. The data set is described as follows: Metabolic activity (Cell Titer Blue). The settings on record: Jurkat (suspension); 10 μM 5 for 72 h.
The test system of data set [12] is MDA-MB-231 and HeLa cells. The data set is described as follows: Bright-field microscopy. The class given is cell-based, human. The settings on record: both cell lines; 18 h; 30 μM 4, 10 μM 5.
Data set [13] deals with A375 melanoma. Further details: method as in Bhandarkar et al., 2008. The settings on record: 11 μM 5, ref Bhandarkar et al., 2008; cited from earlier work.
Data set [14] deals with NMT2. The conditions noted are these: ref Rampoldi et al., 2012; cited from earlier work.
Data set [15] has as its system human NMT1. The settings on record: ref Rampoldi et al., 2012; cited from earlier work.
Data set [16] has as its system human NMTs. The settings on record: ref Bhandarkar et al., 2008; read-out: In Vitro IC50, Reported; cited from earlier work.

pIC50: −log10 of the molar value. “Also recorded” adds a separate entry of the source.

Consider `O=C(/C=C/c1ccccc1)/C=C/c1ccccc1.O=C(/C=C/c1ccccc1)/C=C/c1ccccc1.O=C(/C=C/c1ccccc1)/C=C/c1ccccc1.[Pd].[Pd]` [Compound 5, Tris (dibenzylideneacetone) di-palladium], for which the pIC50 in data set [1] is around 6.52; in data set [2], 5.38; in data set [16] it was 5.89 to 6.30. For the same compound, the “NMT inhibition (sortase A) and cytotoxicity” value in data set [3] is “cytotoxic in the absence NMT inhibition”. Besides, the “concentration at which the compound precipitated (absorbance at 750 nm)” value in data set [4] worked out at 10 µM. The “induction of apoptosis compared with MDA-MB-231” value in data set [5] is “less induction of apoptosis”. Moreover, the “hierarchical one-minus Pearson correlation clustering of enrichment of N-myristoylated proteins” value in [6] is “do not affect NMT activity”. In data set [7], the “decrease in L-AHA labeling” value was 40%–80%. Further, in data set [8] (cell culture media, black rod-shaped crystals), the “precipitation in the media” value is on record as “precipitated in the media”. In data set [8] (growth media of multiple cell lines), the “concentrations at which precipitation in growth media was most notable” value is listed as “over 1 μM”. Also, the “depletion of S phase compared with MDA-MB-231” value in [9] was “correspondingly lower depletion of S phase”. The “N-myristoylation in cells (summary of assays)” value in data set [10] (1 μM IMP-366, 100 nM IMP-1088, 100 μM 2-hydroxymyristic acid, 30 μM D-NMAPPD, 10 μM Tris-DBA palladium, 18 h) is “unaffected; also recorded: does not inhibit NMT in cells”. Moreover, the “quantification of YnMyr tagging of ten bands” value in [10] (MDA-MB-231 and HeLa, 100 μM 3, 30 μM 4, 10 μM 5) is recorded as “at most a minor reduction”. The “effect on metabolic activity” value in data set [11] is on record as “no effect”. For the same compound, in data set [12], the cell morphology result was “exhibited this phenotype”. For the same compound, in data set [13], the “decrease in cell count” value is listed as 96%. Also, the “NMT2 inhibition (claimed selectivity NMT1 vs NMT2)” value in data set [14] was 1.3 µM. The “NMT1 inhibition (claimed selectivity NMT1 vs NMT2)” value in data set [15] is 0.5 µM.
